Test results taken from patent publication US7825107B2, “Method of treating men suffering from chronic nonbacterial prostatitis with SERM compounds or aromatase inhibitors” (Hormos Medical Ltd., priority 2006, dated 2010).

Legend:
[1] = Estrogen antagonist treatment of prostatitis in rats treated with T and E2; assay type: in vivo; conditions: 3 weeks T 240 ug/day and E2 70 ug/day, 2 doses of 5 mg/kg on the third week
From the text: As prostatitis can be reversed by administering an antiestrogen, the condition is seen to be estrogen dependent.

[2] = tested on: effect of estradiol on the prostate (FRA2 or PR expression); assay: Estrogen antagonist effect in the prostate of castrated Noble rats, with and without estradiol, measured by FRA2 or PR expression; assay type: in vivo; conditions: three weeks, 3, 10 and 30 mg/kg, with and without estradiol 70 ug/day

Row | Structure (SMILES) | effect on prostatitis compared to the control group treated with T and E2 only [1] | effect of estradiol on the prostate, measured by FRA2 or PR expression [2]
1 | C[C@]12CC[C@@H]3c4ccc(O)cc4C[C@@H](CCCCCCCCC[S+]([O-])CCCC(F)(F)C(F)(F)F)[C@H]3[C@@H]1CC[C@@H]2O (some centres unmarked) [fulvestrant] | significantly reduced the prostatitis | 
2 | OCCOCCOc1ccc(/C(=C(/CCCl)c2ccccc2)c2ccccc2)cc1 [fispemifene] |  | dose dependently inhibited the effect of estradiol on the prostate
